Test system: 485176-168-R4-J1-PDC spheroids with HUVEC/MSC, viability
Test: Anticancer human tumor 485176-168-R4-J1-PDC patient-derived pancreatic adenocarcinoma cell line growth inhibition [GQUAD]
Details: for IC50: curve of first compound; for viability, T/C: stronger effect = lower value
Method in brief: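 Viability of tumor cells grown as complex spheroids with endothelial and stromal cells, exposed to drug combinations. Top concentration at or near clinical Cmax (else 10 microM), diluted in half-log increments.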

[1] = second compound 0.0316 µM, first compound 0.0316 µM
[2] = second compound 0.0316 µM, first compound 0.1 µM
[3] = second compound 0.0316 µM, first compound 0.316 µM
[4] = second compound 0.0316 µM, first compound 1 µM
[5] = second compound 0.0316 µM, first compound 3.16 µM
[6] = second compound 0.0316 µM, first compound 10 µM
[7] = second compound 0.1 µM, first compound 0.0316 µM
[8] = second compound 0.1 µM, first compound 0.1 µM
[9] = second compound 0.1 µM, first compound 0.316 µM
[10] = second compound 0.1 µM, first compound 1 µM
[11] = second compound 0.1 µM, first compound 3.16 µM
[12] = second compound 0.1 µM, first compound 10 µM
[13] = second compound 0.316 µM, first compound 0.0316 µM
[14] = second compound 0.316 µM, first compound 0.1 µM
[15] = second compound 0.316 µM, first compound 0.316 µM
[16] = second compound 0.316 µM, first compound 1 µM
[17] = second compound 0.316 µM, first compound 3.16 µM
[18] = second compound 0.316 µM, first compound 10 µM
[19] = second compound 1 µM, first compound 0.0316 µM
[20] = second compound 1 µM, first compound 0.1 µM
[21] = second compound 1 µM, first compound 0.316 µM
[22] = second compound 1 µM, first compound 1 µM
[23] = second compound 1 µM, first compound 3.16 µM
[24] = second compound 1 µM, first compound 10 µM
[25] = second compound 3.16 µM, first compound 0.0316 µM
[26] = second compound 3.16 µM, first compound 0.1 µM
[27] = second compound 3.16 µM, first compound 0.316 µM
[28] = second compound 3.16 µM, first compound 1 µM
[29] = second compound 3.16 µM, first compound 3.16 µM
[30] = second compound 3.16 µM, first compound 10 µM
[31] = second compound 10 µM, first compound 0.0316 µM
[32] = second compound 10 µM, first compound 0.1 µM
[33] = second compound 10 µM, first compound 0.316 µM
[34] = second compound 10 µM, first compound 1 µM
[35] = second compound 10 µM, first compound 3.16 µM
[36] = second compound 10 µM, first compound 10 µM
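Also: spheroids exposed to compounds for seven days before readout.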
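For viability, T/C in this document: percent viability relative to DMSO vehicle control wells as 100%.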

O=C(c1cc(Cc2n[nH]c(=O)c3ccccc23)ccc1F)N1CCN(C(=O)C2CC2)CC1 + Cc1[nH]c2ccc(F)cc2c1-c1nc2c3cccnc3c3ncccc3c2[nH]1
IC50 (second compound 0.0316 µM): > 10000 nM
IC50 (second compound 0.1 µM): > 10000 nM
IC50 (second compound 0.316 µM): > 10000 nM
IC50 (second compound 1 µM): > 10000 nM
IC50 (second compound 3.16 µM): > 10000 nM
IC50 (second compound 10 µM): > 10000 nM
viability, T/C [1]: 99.9%
viability, T/C [2]: 75.3%
viability, T/C [3]: 85.6%
viability, T/C [4]: 80.5%
viability, T/C [5]: 91.2%
viability, T/C [6]: 69.9%
viability, T/C [7]: 82.6%
viability, T/C [8]: 93.9%
viability, T/C [9]: 90.3%
viability, T/C [10]: 106%
viability, T/C [11]: 83.2%
viability, T/C [12]: 74.9%
viability, T/C [13]: 93.8%
viability, T/C [14]: 90.5%
viability, T/C [15]: 94.6%
viability, T/C [16]: 95.6%
viability, T/C [17]: 77.8%
viability, T/C [18]: 77.3%
viability, T/C [19]: 92.8%
viability, T/C [20]: 78.9%
viability, T/C [21]: 88.1%
viability, T/C [22]: 86.4%
viability, T/C [23]: 101%
viability, T/C [24]: 68.8%
viability, T/C [25]: 91.4%
viability, T/C [26]: 89.2%
viability, T/C [27]: 85.3%
viability, T/C [28]: 77.6%
viability, T/C [29]: 88.1%
viability, T/C [30]: 62.5%
viability, T/C [31]: 78.5%
viability, T/C [32]: 85.3%
viability, T/C [33]: 70.4%
viability, T/C [34]: 77.1%
viability, T/C [35]: 80%
viability, T/C [36]: 57.5%

COc1cccc2c1C(=O)c1c(O)c3c(c(O)c1C2=O)CC(O)(C(=O)CO)CC3OC1CC(N)C(O)C(C)O1 (stereo unspecified) + Cc1cnc(CNC(=O)c2c(=O)c3ccc(N4CCCN(C)CC4)nc3n3c2sc2ccccc23)cn1
IC50 (second compound 0.0316 µM): 398 nM
IC50 (second compound 0.1 µM): 141 nM
IC50 (second compound 0.316 µM): 196 nM
IC50 (second compound 1 µM): < 31.6 nM
IC50 (second compound 3.16 µM): < 31.6 nM
IC50 (second compound 10 µM): < 31.6 nM
viability, T/C [1]: 81.3%
viability, T/C [2]: 60.9%
viability, T/C [3]: 60.5%
viability, T/C [4]: 13.4%
viability, T/C [5]: 3.49%
viability, T/C [6]: 0.42%
viability, T/C [7]: 80.5%
viability, T/C [8]: 55.9%
viability, T/C [9]: 34.5%
viability, T/C [10]: 20.1%
viability, T/C [11]: 1.67%
viability, T/C [12]: 0.88%
viability, T/C [13]: 55.8%
viability, T/C [14]: 50.8%
viability, T/C [15]: 48.7%
viability, T/C [16]: 18.6%
viability, T/C [17]: 6.39%
viability, T/C [18]: 0.16%
viability, T/C [19]: 54.5%
viability, T/C [20]: 41%
viability, T/C [21]: 51.7%
viability, T/C [22]: 28.2%
viability, T/C [23]: 8.43%
viability, T/C [24]: 0.95%
viability, T/C [25]: 41.6%
viability, T/C [26]: 40.2%
viability, T/C [27]: 44.5%
viability, T/C [28]: 28.1%
viability, T/C [29]: 7.56%
viability, T/C [30]: 0.84%
viability, T/C [31]: 49.8%
viability, T/C [32]: 39.7%
viability, T/C [33]: 44.6%
viability, T/C [34]: 30.4%
viability, T/C [35]: 7.78%
viability, T/C [36]: 1.08%

CC(C)(O)C1CCC(Nc2ccc3ncc(-c4cccc(C(F)(F)F)c4)n3n2)CC1 (stereo unspecified) + Cc1cnc(CNC(=O)c2c(=O)c3ccc(N4CCCN(C)CC4)nc3n3c2sc2ccccc23)cn1
IC50 (second compound 0.0316 µM): > 10000 nM
IC50 (second compound 0.1 µM): 4380 nM
IC50 (second compound 0.316 µM): 1370 nM
IC50 (second compound 1 µM): 371 nM
IC50 (second compound 3.16 µM): 39.9 nM
IC50 (second compound 10 µM): < 31.6 nM
viability, T/C [1]: 94.1%
viability, T/C [2]: 81.3%
viability, T/C [3]: 97.5%
viability, T/C [4]: 67%
viability, T/C [5]: 49.7%
viability, T/C [6]: 51.6%
viability, T/C [7]: 64.5%
viability, T/C [8]: 71.7%
viability, T/C [9]: 57.6%
viability, T/C [10]: 65.8%
viability, T/C [11]: 47.2%
viability, T/C [12]: 44.8%
viability, T/C [13]: 57.3%
viability, T/C [14]: 55.1%
viability, T/C [15]: 58.9%
viability, T/C [16]: 54.1%
viability, T/C [17]: 38.4%
viability, T/C [18]: 39.7%
viability, T/C [19]: 49.2%
viability, T/C [20]: 48.9%
viability, T/C [21]: 54%
viability, T/C [22]: 45.5%
viability, T/C [23]: 31.4%
viability, T/C [24]: 36.2%
viability, T/C [25]: 52.5%
viability, T/C [26]: 45%
viability, T/C [27]: 43.3%
viability, T/C [28]: 42.8%
viability, T/C [29]: 25.2%
viability, T/C [30]: 15.8%
viability, T/C [31]: 43.4%
viability, T/C [32]: 38.8%
viability, T/C [33]: 41.6%
viability, T/C [34]: 37.9%
viability, T/C [35]: 0.55%
viability, T/C [36]: 0.23%

Reference: PubChem BioAssay AID2060509 (Molecular Pharmacology Branch, DTP, NCI, 2025)
